In US6737441B2, “Treatment of helicobacter with isothiocyanates” (priority 2000, dated 2004):
Values after ≈ are worked out from the molar mass of the structure shown. Read-outs that look alike come from different tables or passages of the source. Each block holds one molecule with its values, some of them ahead of it.

What was measured:
[1] = test system: amoxicillin/clarithromycin/metronidazole - susceptible strains of Helicobacter pylori; assay: Bacteriostatic activity (MIC) against susceptible strains; format: cell-based
[2] = test system: clarithromycin and/or metronidazole - intermediate or resistant strains of Helicobacter pylori; assay: Bacteriostatic activity (MIC) against intermediate or resistant strains; format: cell-based
[3] = in cell culture; cited from earlier work
[4] = Helicobacter pylori, H. pylori strain no 1, read-out: MIC
[5] = Helicobacter pylori, H. pylori strain no 2, read-out: MIC
[6] = Helicobacter pylori, H. pylori strain no 3, read-out: MIC
[7] = Helicobacter pylori, H. pylori strain no 4, read-out: MIC
[8] = Helicobacter pylori, H. pylori strain no 5, read-out: MIC
[9] = Helicobacter pylori, H. pylori strain no 6, read-out: MIC
[10] = Helicobacter pylori, H. pylori strain no 7, read-out: MIC
[11] = Helicobacter pylori, H. pylori strain no 8, read-out: MIC
[12] = Helicobacter pylori, H. pylori strain no 10, read-out: MIC
[13] = Helicobacter pylori, H. pylori strain no 11, read-out: MIC
[14] = Helicobacter pylori, H. pylori strain no 12, read-out: MIC
[15] = Helicobacter pylori, H. pylori strain no 13, read-out: MIC
[16] = Helicobacter pylori, H. pylori strain no 14, read-out: MIC
[17] = Helicobacter pylori, H. pylori strain no 15, read-out: MIC
[18] = Helicobacter pylori, H. pylori strain no 16, read-out: MIC
[19] = Helicobacter pylori, H. pylori strain no 17, read-out: MIC
[20] = Helicobacter pylori, H. pylori strain no 18, read-out: MIC
[21] = Helicobacter pylori, H. pylori strain no 19, read-out: MIC
[22] = Helicobacter pylori, H. pylori strain no 20, read-out: MIC
[23] = Helicobacter pylori, H. pylori strain no 22, read-out: MIC
[24] = Helicobacter pylori, H. pylori strain no 23, read-out: MIC
[25] = Helicobacter pylori, H. pylori strain no 24, read-out: MIC
[26] = Helicobacter pylori, H. pylori strain no 25, read-out: MIC
[27] = Helicobacter pylori, H. pylori strain no 26, read-out: MIC
[28] = Helicobacter pylori, H. pylori strain no 27, read-out: MIC
[29] = Helicobacter pylori, H. pylori strain no 28, read-out: MIC
[30] = Helicobacter pylori, H. pylori strain no 30, read-out: MIC
[31] = Helicobacter pylori, H. pylori strain no 31, read-out: MIC
[32] = Helicobacter pylori, H. pylori strain no 32, read-out: MIC
[33] = Helicobacter pylori, H. pylori strain no 33, read-out: MIC
[34] = Helicobacter pylori, H. pylori strain no 35, read-out: MIC
[35] = Helicobacter pylori, H. pylori strain no 36, read-out: MIC
[36] = Helicobacter pylori, H. pylori strain no 37, read-out: MIC
[37] = Helicobacter pylori, H. pylori strain no 39, read-out: MIC
[38] = Helicobacter pylori, H. pylori strain no 40, read-out: MIC
[39] = Helicobacter pylori, H. pylori strain no 41, read-out: MIC
[40] = Helicobacter pylori, H. pylori strain no 42, read-out: MIC
[41] = Helicobacter pylori, H. pylori strain no 43, read-out: MIC
[42] = Helicobacter pylori, H. pylori strain no 44, read-out: MIC
[43] = Helicobacter pylori, H. pylori strain no 45, read-out: MIC
[44] = Helicobacter pylori, H. pylori strain no 46, read-out: MIC
[45] = Helicobacter pylori, H. pylori strain no 47, read-out: MIC
[46] = Helicobacter pylori, H. pylori strain no 9, read-out: MIC
[47] = Helicobacter pylori, H. pylori strain no 29, read-out: MIC
[48] = Helicobacter pylori, H. pylori strain no 38, read-out: MIC

MIC [1, 4]: 0.06 µg/mL (≈ 0.164 µM)
MIC [1, 5]: 0.06 µg/mL (≈ 0.164 µM)
MIC [1, 6]: 0.06 µg/mL (≈ 0.164 µM)
MIC [1, 7]: 0.06 µg/mL (≈ 0.164 µM)
MIC [1, 8]: 0.06 µg/mL (≈ 0.164 µM)
MIC [1, 9]: 0.06 µg/mL (≈ 0.164 µM)
MIC [1, 10]: 0.06 µg/mL (≈ 0.164 µM)
MIC [1, 11]: 0.06 µg/mL (≈ 0.164 µM)
MIC [1, 12]: 0.06 µg/mL (≈ 0.164 µM)
MIC [1, 13]: 0.06 µg/mL (≈ 0.164 µM)
MIC [1, 14]: 0.06 µg/mL (≈ 0.164 µM)
MIC [1, 15]: 0.06 µg/mL (≈ 0.164 µM)
MIC [1, 16]: 0.06 µg/mL (≈ 0.164 µM)
MIC [1, 17]: 0.06 µg/mL (≈ 0.164 µM)
MIC [1, 18]: 0.06 µg/mL (≈ 0.164 µM)
MIC [1, 19]: 0.06 µg/mL (≈ 0.164 µM)
MIC [1, 20]: 0.06 µg/mL (≈ 0.164 µM)
MIC [1, 21]: 0.06 µg/mL (≈ 0.164 µM)
MIC [1, 22]: 0.06 µg/mL (≈ 0.164 µM)
MIC [1, 23]: 0.06 µg/mL (≈ 0.164 µM)
MIC [1, 24]: 0.06 µg/mL (≈ 0.164 µM)
MIC [1, 25]: 0.06 µg/mL (≈ 0.164 µM)
MIC [1, 26]: 0.06 µg/mL (≈ 0.164 µM)
MIC [1, 27]: 0.06 µg/mL (≈ 0.164 µM)
MIC [1, 28]: 0.06 µg/mL (≈ 0.164 µM)
MIC [1, 29]: 0.06 µg/mL (≈ 0.164 µM)
MIC [1, 30]: 0.06 µg/mL (≈ 0.164 µM)
MIC [1, 31]: 0.06 µg/mL (≈ 0.164 µM)
MIC [1, 32]: 0.06 µg/mL (≈ 0.164 µM)
MIC [2, 33]: 0.06 µg/mL (≈ 0.164 µM)
MIC [2, 34]: 0.06 µg/mL (≈ 0.164 µM)
MIC [2, 35]: 0.06 µg/mL (≈ 0.164 µM)
MIC [2, 36]: 0.06 µg/mL (≈ 0.164 µM)
MIC [2, 37]: 0.06 µg/mL (≈ 0.164 µM)
MIC [2, 38]: 0.06 µg/mL (≈ 0.164 µM)
MIC [2, 39]: 0.06 µg/mL (≈ 0.164 µM)
MIC [2, 40]: 0.06 µg/mL (≈ 0.164 µM)
MIC [2, 41]: 0.06 µg/mL (≈ 0.164 µM)
MIC [2, 42]: 0.06 µg/mL (≈ 0.164 µM)
MIC [2, 43]: 0.06 µg/mL (≈ 0.164 µM)
MIC [2, 44]: 0.06 µg/mL (≈ 0.164 µM)
MIC [2, 45]: 0.06 µg/mL (≈ 0.164 µM)
SMILES: CC1(C)S[C@@H]2[C@H](NC(=O)[C@H](N)c3ccc(O)cc3)C(=O)N2[C@H]1C(=O)O [Amoxicillin]

SMILES: CSCCCCCN=C=S [Bertoin]
activity as inducers relative to sulforaphane and sulforaphene [3]: less active

SMILES: CC[C@H]1OC(=O)[C@H](C)[C@@H](O[C@H]2C[C@@](C)(OC)[C@@H](O)[C@H](C)O2)[C@H](C)[C@@H](O[C@@H]2O[C@H](C)C[C@H](N(C)C)[C@H]2O)[C@](C)(OC)C[C@@H](C)C(=O)[C@H](C)[C@@H](O)[C@]1(C)O [Clarithromycin]
MIC ([1]; H. pylori strain no 2): 0.125 µg/mL (≈ 0.167 µM)
MIC ([1]; H. pylori strain no 28): 0.125 µg/mL (≈ 0.167 µM)
MIC ([1]; Helicobacter pylori): 0.125 µg/mL (≈ 0.167 µM)
MIC [1, 4]: 0.06 µg/mL (≈ 0.0802 µM)
MIC [1, 7]: 0.06 µg/mL (≈ 0.0802 µM)
MIC [1, 8]: 0.06 µg/mL (≈ 0.0802 µM)
MIC [1, 9]: 0.06 µg/mL (≈ 0.0802 µM)
MIC [1, 10]: 0.06 µg/mL (≈ 0.0802 µM)
MIC [1, 11]: 0.06 µg/mL (≈ 0.0802 µM)
MIC [1, 46]: 0.06 µg/mL (≈ 0.0802 µM)
MIC [1, 12]: 0.06 µg/mL (≈ 0.0802 µM)
MIC [1, 13]: 0.06 µg/mL (≈ 0.0802 µM)
MIC [1, 14]: 0.06 µg/mL (≈ 0.0802 µM)
MIC [1, 15]: 0.06 µg/mL (≈ 0.0802 µM)
MIC [1, 16]: 0.06 µg/mL (≈ 0.0802 µM)
MIC [1, 17]: 0.06 µg/mL (≈ 0.0802 µM)
MIC [1, 18]: 0.06 µg/mL (≈ 0.0802 µM)
MIC [1, 19]: 0.06 µg/mL (≈ 0.0802 µM)
MIC [1, 20]: 0.06 µg/mL (≈ 0.0802 µM)
MIC [1, 21]: 0.06 µg/mL (≈ 0.0802 µM)
MIC [1, 22]: 0.06 µg/mL (≈ 0.0802 µM)
MIC ([1]; Helicobacter pylori, H. pylori strain no 21, read-out: MIC): 0.06 µg/mL (≈ 0.0802 µM)
MIC [1, 23]: 2 µg/mL (≈ 2.67 µM)
MIC [1, 24]: 0.06 µg/mL (≈ 0.0802 µM)
MIC [1, 25]: 0.06 µg/mL (≈ 0.0802 µM)
MIC [1, 26]: 0.06 µg/mL (≈ 0.0802 µM)
MIC [1, 27]: 0.06 µg/mL (≈ 0.0802 µM)
MIC [1, 28]: 0.06 µg/mL (≈ 0.0802 µM)
MIC [1, 47]: 0.06 µg/mL (≈ 0.0802 µM)
MIC [1, 30]: 0.06 µg/mL (≈ 0.0802 µM)
MIC [1, 31]: 0.06 µg/mL (≈ 0.0802 µM)
MIC [1, 32]: 0.06 µg/mL (≈ 0.0802 µM)
MIC ([2]; H. pylori strain no 34): 0.125 µg/mL (≈ 0.167 µM)
MIC ([2]; Helicobacter pylori): 0.125 µg/mL (≈ 0.167 µM)
MIC [2, 33]: 0.06 µg/mL (≈ 0.0802 µM)
MIC [2, 34]: 0.06 µg/mL (≈ 0.0802 µM)
MIC [2, 35]: 0.06 µg/mL (≈ 0.0802 µM)
MIC [2, 36]: 0.06 µg/mL (≈ 0.0802 µM)
MIC [2, 48]: 0.5 µg/mL (≈ 0.668 µM)
MIC [2, 38]: 0.06 µg/mL (≈ 0.0802 µM)
MIC [2, 39]: 4 µg/mL (≈ 5.35 µM)
MIC [2, 40]: 16 µg/mL (≈ 21.4 µM)
MIC [2, 41]: 16 µg/mL (≈ 21.4 µM)
MIC [2, 42]: 16 µg/mL (≈ 21.4 µM)
MIC [2, 43]: 8 µg/mL (≈ 10.7 µM)
MIC [2, 44]: 16 µg/mL (≈ 21.4 µM)
MIC [2, 45]: 16 µg/mL (≈ 21.4 µM)

MIC [1, 4]: 1 µg/mL (≈ 5.84 µM)
MIC [1, 5]: 1 µg/mL (≈ 5.84 µM)
MIC [1, 6]: 1 µg/mL (≈ 5.84 µM)
MIC [1, 7]: 1 µg/mL (≈ 5.84 µM)
MIC [1, 8]: 4 µg/mL (≈ 23.4 µM)
MIC [1, 9]: 0.06 µg/mL (≈ 0.351 µM)
MIC [1, 10]: 0.06 µg/mL (≈ 0.351 µM)
MIC [1, 11]: 0.5 µg/mL (≈ 2.92 µM)
MIC [1, 46]: 1 µg/mL (≈ 5.84 µM)
MIC [1, 12]: 0.5 µg/mL (≈ 2.92 µM)
MIC [1, 13]: 0.25 µg/mL (≈ 1.46 µM)
MIC [1, 14]: 1 µg/mL (≈ 5.84 µM)
MIC [1, 15]: 1 µg/mL (≈ 5.84 µM)
MIC [1, 16]: 0.06 µg/mL (≈ 0.351 µM)
MIC [1, 17]: 0.06 µg/mL (≈ 0.351 µM)
MIC [1, 18]: 0.5 µg/mL (≈ 2.92 µM)
MIC [1, 19]: 1 µg/mL (≈ 5.84 µM)
MIC [1, 20]: 1 µg/mL (≈ 5.84 µM)
MIC [1, 24]: 0.06 µg/mL (≈ 0.351 µM)
MIC [1, 25]: 0.5 µg/mL (≈ 2.92 µM)
MIC [1, 26]: 1 µg/mL (≈ 5.84 µM)
MIC [1, 27]: 1 µg/mL (≈ 5.84 µM)
MIC [1, 28]: 0.06 µg/mL (≈ 0.351 µM)
MIC [1, 29]: 0.5 µg/mL (≈ 2.92 µM)
MIC [1, 47]: 1 µg/mL (≈ 5.84 µM)
MIC [1, 30]: 0.5 µg/mL (≈ 2.92 µM)
MIC [1, 31]: 0.25 µg/mL (≈ 1.46 µM)
MIC [1, 32]: 1 µg/mL (≈ 5.84 µM)
MIC [2, 33]: 32 µg/mL (≈ 187 µM)
MIC ([2]; Helicobacter pylori, H. pylori strain no 34, read-out: MIC): 256 µg/mL (≈ 1500 µM)
MIC [2, 34]: 64 µg/mL (≈ 374 µM)
MIC [2, 35]: 64 µg/mL (≈ 374 µM)
MIC [2, 36]: 64 µg/mL (≈ 374 µM)
MIC [2, 48]: 64 µg/mL (≈ 374 µM)
MIC [2, 37]: 256 µg/mL (≈ 1500 µM)
MIC [2, 38]: 64 µg/mL (≈ 374 µM)
MIC [2, 39]: 16 µg/mL (≈ 93.5 µM)
MIC [2, 40]: 1 µg/mL (≈ 5.84 µM)
MIC [2, 41]: 1 µg/mL (≈ 5.84 µM)
MIC [2, 42]: 0.5 µg/mL (≈ 2.92 µM)
MIC [2, 43]: 2 µg/mL (≈ 11.7 µM)
MIC [2, 44]: 32 µg/mL (≈ 187 µM)
MIC [2, 45]: 64 µg/mL (≈ 374 µM)
SMILES: Cc1ncc([N+](=O)[O-])n1CCO [Metronidazole]
